From patent US20210221866A1, “PROTEASE-RESISTANT LIPIDATED GLP-1 ANALOGS” (MEDIMMUNE LIMITED, priority 2015, published 2021)
Read-outs that look alike come from different tables or passages of the source. Numbered stars: 1 amine (or outer) side, 2 acyl side, 3 side chain; on linkers, the order of the positions; unused ones are H or OH. Square brackets hold non-standard residues; d marks the D form. Side chains are listed from the residue outwards. Peptide text beside a SMILES is read from it. * marks the point of attachment. γGlu = O=C(O)[C@H](CCC(=O)[*:2])N[*:1]; αMeF = C[C@](N)(Cc1ccccc1)C(=O)O; αMeK = C[C@](N)(CCCCN)C(=O)O; Lauroyl = CCCCCCCCCCCC(=O)*; αMeS = C[C@](N)(CO)C(=O)O; AEEA = NCCOCCOCC(=O)O; Aib = CC(C)(N)C(=O)O

Experiments:
recombinant Neprilysin = biological target: T1, recombinant Neprilysin (Homo sapiens, UniProt P08473); experiment: Proteolytic resistance to neprilysin (% remaining peptide, RP-HPLC AUC); type: in vitro ADME; conditions: t = 0 (baseline); 37° C., pH 8.3; enzyme:peptide ~1:33 for non-lipidated, ~1:2.5 for lipidated peptides
T1 construct: purchased R&D Systems 1182-ZNC-010
Protocol: Ratio enzyme (units):peptide (moles) ˜1:33. […] Ratio enzyme (units):peptide (moles) ˜1:2.5.
15 μL aliquots (˜15 ng initial peptide) of the peptide-enzyme mixture were periodically withdrawn (t=0, 30 mins, 1 hr, 2 hr, 4 hr, 8 hr, 24 hr) and quenched immediately by addition to an equal volume (15 μL) of 5% TFA (v/v) in 1:1 water/acetonitrile to arrest proteolytic activity. 20 μL aliquots (˜10 ng initial peptide) were analyzed by LC/MS and/or analytical RP-HPLC as follows: LC/MS method: Agilent Polaris C8-A column (4.6×100 mm, 3 micron) eluted with a linear binary gradient of 10-90% MeCN (0.1% TFA v/v) in water (0.1% TFA v/v) over 30 mins at 1.5 mL min-1 at ambient temperature with detection by both UV absorption at 210 nm and ionization using a Waters 3100 mass detector (ESI+ mode). Peptide fragments deriving from enzymatic hydrolysis were identified by molecular weight, allowing location of the site of cleavage. Analytical RP-HPLC method: Agilent Polaris C8-A column (4.6×100 mm, 3 micron) eluted with a linear binary gradient of 10-90% MeCN (0.1% TFA v/v) in water (0.1% TFA v/v) over either 10 or 15 mins at 1.5 mL min^−1 at 40° C. with detection by UV absorption at 210 nm. Manual integration (AUC) allowed estimation of remaining intact peptide over the time course of the experiment.
25 μL aliquots (˜6 μg initial peptide) were analyzed by LC/MS and/or analytical RP-HPLC as follows: LC/MS method: Agilent Polaris C8-A column (4.6×100 mm, 3 micron) eluted with a linear binary gradient of 10-90% MeCN (0.1% TFA v/v) in water (0.1% TFA v/v) over 30 mins at 1.5 mL min^−1 at ambient temperature with detection by both UV absorption at 210 nm and ionization using a Waters 3100 mass detector (ESI^+ mode). Peptide fragments deriving from enzymatic hydrolysis were identified by molecular weight, allowing location of the site of cleavage. Analytical RP-HPLC method: Agilent Polaris C8-A column (4.6×100 mm, 3 micron) eluted with a linear binary gradient of 10-90% MeCN (0.1% TFA v/v) in water (0.1% TFA v/v) over either 10 or 15 mins at 1.5 mL min^−1 at 40° C. with detection by UV absorption at 210 nm. Manual integration (AUC) allowed estimation of remaining intact peptide over the time course of the experiment.

[1] = biological target: T2, porcine pancreatic pepsin (Sus scrofa, UniProt P00791); experiment: Proteolytic resistance to pepsin (% remaining intact peptide, RP-HPLC AUC); type: in vitro ADME; conditions: t = 0; 37° C., pH 2.0
T2 construct: purchased Sigma P7012
Protocol: Pepsin: Lyophilized porcine pancreatic pepsin (Sigma: P7012) was reconstituted to afford a solution of 200 μg/mL (˜500 units/mL) in assay buffer (0.1 M HCl, pH 2.0) to give the enzyme stock solution. […] Ratio enzyme (units):peptide (moles) ˜1:6. […] Ratio enzyme (units):peptide (μmoles) ˜2:1.
Lyophilized porcine pancreatic pepsin (Sigma: P7012) was reconstituted to […] (˜500 units/mL) in assay buffer ([…], pH 2.0) to give the enzyme stock solution.

[2] = biological target: porcine pancreatic trypsin (Sus scrofa, UniProt P00761); experiment: Proteolytic resistance to trypsin (% remaining intact peptide, RP-HPLC AUC); type: in vitro ADME; conditions: t = 0; 37° C., pH 7.8
Protocol: Trypsin: Lyophilized porcine pancreatic trypsin (Sigma: T1426) was reconstituted to afford a solution of 100 μg/mL (˜300 units/mL) in assay buffer (50 mM Tris, 10 mM CaCl2), 150 mM NaCl, 1 mM HCl, adjusted to pH 7.8) to give the enzyme stock solution. […] Ratio enzyme (units):peptide (μmoles) ˜1:11. […] Ratio enzyme (units):peptide (μ moles) ˜1.2:1.
Lyophilized porcine pancreatic trypsin (Sigma: T7409) was reconstituted to 200 μg/mL (˜300 units/mL) in assay buffer (50 mM Tris, 10 mM CaCl2), 150 mM NaCl, 1 mM HCl, adjusted to pH 7.8) to give the enzyme stock solution. […] 15 μL aliquots (˜15 μg initial peptide) of the peptide-enzyme mixture were periodically withdrawn (t=0, 30 mins, 1 hr, 2 hr, 4 hr, 8 hr, 24 hr) and quenched immediately by addition to an equal volume (15 μL) of 5% TFA (v/v) in 1:1 water/acetonitrile to arrest proteolytic activity. 20 μL aliquots (˜10 μg initial peptide) were analysed by LC/MS and/or analytical RP-HPLC as follows: LC/MS method: Agilent Polaris C8-A column (4.6×100 mm, 3 micron) eluted with a linear binary gradient of 10-90% MeCN (0.1% TFA v/v) in water (0.1% TFA v/v) over 30 mins at 1.5 mL min^−1 at ambient temperature with detection by both UV absorption at 210 nm and ionization using a Waters 3100 mass detector (ESI^+ mode). Peptide fragments deriving from enzymatic hydrolysis were identified by molecular weight, allowing location of the site of cleavage. Analytical RP-HPLC method: Agilent Polaris C8-A column (4.6×100 mm, 3 micron) eluted with a linear binary gradient of 10-90% MeCN (0.1% TFA v/v) in water (0.1% TFA v/v) over either 10 or 15 mins at 1.5 mL min^−1 at 40° C. with detection by UV absorption at 210 nm. Manual integration (AUC) allowed estimation of remaining intact peptide over the time course of the experiment.
Lyophilized porcine pancreatic trypsin (Sigma: T7409) was reconstituted to 200 μg/mL (˜300 units/mL) in assay buffer (50 mM Tris, 10 mM CaCl2), 150 mM NaCl, 1 mM HCl, adjusted to pH 7.8) to give the enzyme stock solution. […] 25 μL aliquots (˜17 μg initial peptide) of the peptide-enzyme mixture were periodically withdrawn (t=0, 30 mins, 1 hr, 2 hr, 4 hr, 8 hr, 24 hr) and quenched immediately by addition to an equal volume (25 μL) of 5% TFA (v/v) in 1:1 water/acetonitrile to arrest proteolytic activity. 25 μL aliquots (˜8 μg initial peptide) were analysed by LC/MS and/or analytical RP-HPLC as follows: LC/MS method: Agilent Polaris C8-A column (4.6×100 mm, 3 micron) eluted with a linear binary gradient of 10-90% MeCN (0.1% TFA v/v) in water (0.1% TFA v/v) over 30 mins at 1.5 mL min^−1 at ambient temperature with detection by both UV absorption at 210 nm and ionization using a Waters 3100 mass detector (ESI^+ mode). Peptide fragments deriving from enzymatic hydrolysis were identified by molecular weight, allowing location of the site of cleavage. Analytical RP-HPLC method: Agilent Polaris C8-A column (4.6×100 mm, 3 micron) eluted with a linear binary gradient of 10-90% MeCN (0.1% TFA v/v) in water (0.1% TFA v/v) over either 10 or 15 mins at 1.5 mL min^−1 at 40° C. with detection by UV absorption at 210 nm. Manual integration (AUC) allowed estimation of remaining intact peptide over the time course of the experiment.

[3] = Proteolytic resistance to fasted-state simulated intestinal fluid (FASSIF/Pancreatin); type: in vitro ADME; conditions: 37° C., read-out: Percentage remaining intact peptide (AUC by RP-HPLC) upon incubation with fasted-state simulated intestinal fluid (FASSIF/P); for remaining at 10 min, […]: t = 10 m; for remaining at 0.25 h, […]: t = 15 m; for remaining at 0.5 h, […]: t = 30 m; for remaining at 2 h, […]: t = 2 h
Protocol: (§1) A fresh suspension of FASSIF/P (Fasted-State Simulated Intestinal Fluid+USP Pancreatin®) was prepared according to that described by Galia, Nicolaides, Hörter, Lobenberg, Reppas and Dressman: Pharm. Res. 15 (1998) 698-705. The resulting preparation is proteolytically equivalent to ˜375 units/mL (375 kU/L) and was used immediately without storage. Peptides for evaluation (1.0 mg, ˜250 nmoles) were initially dissolved in pre-warmed FASSIF without Pancreatin® (200 μL) to which was added pre-warmed fresh FASSIF/Pancreatin® (100 μL) to initiate potential digestion. Following momentary vortexing of the Eppendorf reaction tube the mixture was incubated at 37° C. in a thermostatic waterbath for the duration of the experiment. 25 μL aliquots of the co-incubated peptide-enzyme mixture were periodically withdrawn (t=0, 5 m, 10 m, 15 m, 30 m, 1 h, 2 h) and quenched immediately by addition to a solution of 10% TFA in 1:1 water/acetonitrile (75 μL) to arrest proteolytic activity.

[4] = tested on: FASSIF/P (Fasted-State Simulated Intestinal Fluid+USP Pancreatin®); experiment: as above; type: in vitro ADME; conditions: t = 0; 37° C.
Protocol: as §1

[5] = tested on: FASSIF/Pancreatin® activated with 100 μg/mL human enterokinase; experiment: Proteolytic resistance to FASSIF/Pancreatin following full zymogen activation with enterokinase; type: in vitro ADME; conditions: t = 0; 37° C.
Protocol: as §1, with “Pharm. […] To the” for “Pharm. Res. 15 (1998) 698-705. The”, “preparation was added human enterokinase (100 μg/mL)” for “preparation is proteolytically equivalent”, “to ensure the potential for full zymogen activity of the mixture which” for “to ˜375 units/mL (375 kU/L) and”, “([…])” for “(100 μL)”

[6] = biological target: T3, human glucagon receptor (GCGR) (Homo sapiens, UniProt P47871); experiment: cAMP assay, human GCGR cells; type: cell-based; conditions: Table 9, bis-lipidated peptides
T3 construct: expressed in transfected cells; host or cells: HEK293 cells or CHO cells
Outline: (§2)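 Peptide-stimulated cAMP measured by two-step HTRF after a 30 min room-temperature incubation with receptor-expressing cells (hGLP-1R, hGIPR at 1×10^5 cells/ml; hGCGR at 2×10^5 cells/ml). Duplicate dilutions; EC50 from 4-parameter logistic fit of % Delta F.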

[7] = biological target: T4, human glucose-dependent insulinotropic peptide receptor (GIPR) (Homo sapiens, UniProt P48546); experiment: cAMP assay, human GIPR cells; type: cell-based; conditions: Table 9, bis-lipidated peptides
T4 construct: expressed in transfected cells; host or cells: HEK293 cells or CHO cells
T4 sequence (P48546 22-466): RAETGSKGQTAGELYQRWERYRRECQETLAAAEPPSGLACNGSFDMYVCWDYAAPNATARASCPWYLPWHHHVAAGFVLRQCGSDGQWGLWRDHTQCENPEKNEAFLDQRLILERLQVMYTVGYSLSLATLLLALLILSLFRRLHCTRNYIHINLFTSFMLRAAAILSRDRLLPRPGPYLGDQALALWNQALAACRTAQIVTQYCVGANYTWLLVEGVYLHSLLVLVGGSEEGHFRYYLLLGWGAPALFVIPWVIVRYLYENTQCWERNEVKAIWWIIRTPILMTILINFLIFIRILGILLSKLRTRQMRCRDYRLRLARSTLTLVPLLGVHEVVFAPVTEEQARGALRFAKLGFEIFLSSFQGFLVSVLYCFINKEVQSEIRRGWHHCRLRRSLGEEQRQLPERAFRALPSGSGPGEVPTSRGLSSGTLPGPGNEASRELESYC
Outline: as §2

[8] = Proteolytic resistance to α-chymotrypsin (% remaining intact peptide, RP-HPLC AUC); conditions: recombinant α-chymotrypsin in assay buffer, pH 7.8
Protocol: (§3) Ratio enzyme (units):peptide (μmoles) ˜1:33. […] Ratio enzyme (units):peptide (μmoles) ˜1:2.5.
(§4) 15 μL aliquots (˜15 μg initial peptide) of the peptide-enzyme mixture are periodically withdrawn (t=0, 30 mins, 1 hr, 2 hr, 4 hr, 8 hr, 24 hr) and quenched immediately by addition to an equal volume (15 μL) of 5% TFA (v/v) in 1:1 water/acetonitrile to arrest proteolytic activity. 20 μL aliquots (˜10 μg initial peptide) are analysed by LC/MS and/or analytical RP-HPLC as follows: LC/MS method: Agilent Polaris C8-A column (4.6×100 mm, 3 micron) elutes with a linear binary gradient of 10-90% MeCN (0.1% TFA v/v) in water (0.1% TFA v/v) over 30 mins at 1.5 mL min^−1 at ambient temperature with detection by both UV absorption at 210 nm and ionization using a Waters 3100 mass detector (ESI^+ mode). Peptide fragments deriving from enzymatic hydrolysis are identified by molecular weight, allowing location of the site of cleavage. Analytical RP-HPLC method: Agilent Polaris C8-A column (4.6×100 mm, 3 micron) elutes with a linear binary gradient of 10-90% MeCN (0.1% TFA v/v) in water (0.1% TFA v/v) over either 10 or 15 mins at 1.5 mL min^−1 at 40° C. with detection by UV absorption at 210 nm. Manual integration (AUC) allows estimation of remaining intact peptide over the time course of the experiment.
(§5) 25 μL aliquots (˜6 μg initial peptide) are analysed by LC/MS and/or analytical RP-HPLC as follows: LC/MS method: Agilent Polaris C8-A column (4.6×100 mm, 3 micron) elutes with a linear binary gradient of 10-90% MeCN (0.1% TFA v/v) in water (0.1% TFA v/v) over 30 mins at 1.5 mL min^−1 at ambient temperature with detection by both UV absorption at 210 nm and ionization using a Waters 3100 mass detector (ESI±mode). Peptide fragments deriving from enzymatic hydrolysis are identified by molecular weight, allowing location of the site of cleavage. Analytical RP-HPLC method: Agilent Polaris C8-A column (4.6×100 mm, 3 micron) elutes with a linear binary gradient of 10-90% MeCN (0.1% TFA v/v) in water (0.1% TFA v/v) over either 10 or 15 mins at 1.5 mL min^−1 at 40° C. with detection by UV absorption at 210 nm. Manual integration (AUC) allows estimation of remaining intact peptide over the time course of the experiment.

[9] = tested on: recombinant α-chymotrypsin; experiment: as above; conditions: t = 0; 37° C., pH 7.8
Protocol: as §3, §4, §5

[10] = biological target: T5, human GLP-1 receptor (GLP-1R) (Homo sapiens, UniProt P43220); experiment: cAMP assay, human GLP-1R cells; type: cell-based; conditions: Table 9, bis-lipidated peptides; mean of n1 and n2; read-out: Primary assay EC50 Mean pM GLP-1R
T5 construct: expressed in transfected cells; host or cells: HEK293 cells or CHO cells
Outline: as §2

GLP-1R (INS1e cells) = biological target: T6, GLP-1R (INS1e cells) (Rattus norvegicus, UniProt P32301); experiment: INS1e assay, cAMP activity at GLP-1R; type: cell-based; conditions: Table 10, bis-lipidated peptides, mean of n1 and n2, read-out: INS1e assay EC50 Mean pM GLP-1R
T6 construct: endogenous in cells; host or cells: INS1e cells
T6 sequence (P32301 22-463): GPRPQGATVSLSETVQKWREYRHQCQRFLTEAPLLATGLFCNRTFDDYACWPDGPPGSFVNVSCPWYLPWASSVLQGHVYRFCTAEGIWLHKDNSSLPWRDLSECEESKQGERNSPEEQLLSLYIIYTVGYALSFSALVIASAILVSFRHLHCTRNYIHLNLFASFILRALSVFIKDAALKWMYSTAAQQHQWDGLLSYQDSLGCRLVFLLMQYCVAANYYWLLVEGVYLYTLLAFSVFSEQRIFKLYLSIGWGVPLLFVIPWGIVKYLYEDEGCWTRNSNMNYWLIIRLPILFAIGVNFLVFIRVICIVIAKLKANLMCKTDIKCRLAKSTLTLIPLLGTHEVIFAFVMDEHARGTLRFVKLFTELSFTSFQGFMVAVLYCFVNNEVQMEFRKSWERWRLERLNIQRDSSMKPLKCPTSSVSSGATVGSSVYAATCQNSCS

[11] = first replicate, read-out: Primary assay EC50 Gluc-R (n1)
[12] = second replicate, read-out: Primary assay EC50 Gluc-R (n2)
[13] = first replicate, read-out: Primary assay EC50 GIP-R (n1)
[14] = second replicate, read-out: Primary assay EC50 GIP-R (n2)

T3 sequence (P47871 26-477): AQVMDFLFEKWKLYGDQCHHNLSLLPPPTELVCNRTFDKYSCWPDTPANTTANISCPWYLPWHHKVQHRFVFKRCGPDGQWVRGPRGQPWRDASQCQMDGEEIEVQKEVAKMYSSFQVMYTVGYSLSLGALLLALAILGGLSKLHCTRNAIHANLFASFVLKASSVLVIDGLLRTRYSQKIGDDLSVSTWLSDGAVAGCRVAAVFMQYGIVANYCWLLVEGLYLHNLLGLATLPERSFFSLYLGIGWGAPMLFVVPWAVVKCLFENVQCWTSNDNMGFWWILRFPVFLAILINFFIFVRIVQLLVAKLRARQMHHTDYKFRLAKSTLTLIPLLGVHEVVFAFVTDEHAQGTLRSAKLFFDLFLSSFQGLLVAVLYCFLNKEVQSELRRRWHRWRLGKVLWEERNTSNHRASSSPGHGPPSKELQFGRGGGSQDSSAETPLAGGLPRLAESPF
T1 sequence (P08473 whole entry): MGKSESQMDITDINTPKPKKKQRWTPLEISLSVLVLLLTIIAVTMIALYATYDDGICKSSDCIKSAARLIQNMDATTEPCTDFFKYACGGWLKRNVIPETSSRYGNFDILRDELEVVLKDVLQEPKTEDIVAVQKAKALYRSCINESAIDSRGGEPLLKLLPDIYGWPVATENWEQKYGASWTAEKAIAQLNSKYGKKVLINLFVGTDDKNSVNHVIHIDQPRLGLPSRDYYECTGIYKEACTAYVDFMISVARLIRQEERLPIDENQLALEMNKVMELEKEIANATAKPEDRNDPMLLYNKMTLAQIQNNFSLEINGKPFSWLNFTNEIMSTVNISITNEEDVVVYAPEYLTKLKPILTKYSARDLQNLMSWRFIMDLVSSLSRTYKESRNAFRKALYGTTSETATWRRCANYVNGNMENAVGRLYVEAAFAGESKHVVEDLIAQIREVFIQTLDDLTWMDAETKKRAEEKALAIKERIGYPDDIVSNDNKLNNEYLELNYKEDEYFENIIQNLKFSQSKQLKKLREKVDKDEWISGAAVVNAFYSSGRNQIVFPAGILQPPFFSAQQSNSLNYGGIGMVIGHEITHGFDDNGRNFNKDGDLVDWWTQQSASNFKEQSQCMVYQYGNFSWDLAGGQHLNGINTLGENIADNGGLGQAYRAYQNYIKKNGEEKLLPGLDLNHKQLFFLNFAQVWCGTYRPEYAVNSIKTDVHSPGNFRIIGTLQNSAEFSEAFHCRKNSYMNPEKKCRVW
T2 sequence (P00791 60-385): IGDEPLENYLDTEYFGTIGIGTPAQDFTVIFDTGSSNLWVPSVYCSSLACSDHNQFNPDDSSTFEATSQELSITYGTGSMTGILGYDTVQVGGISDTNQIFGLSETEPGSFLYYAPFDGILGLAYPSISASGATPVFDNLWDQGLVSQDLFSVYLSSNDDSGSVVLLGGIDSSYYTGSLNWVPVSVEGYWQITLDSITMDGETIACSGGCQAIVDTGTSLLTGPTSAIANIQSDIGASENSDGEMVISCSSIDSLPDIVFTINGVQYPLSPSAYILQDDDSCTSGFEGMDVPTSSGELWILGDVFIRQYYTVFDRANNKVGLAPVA
Chain of porcine pancreatic trypsin (P00761 9-231): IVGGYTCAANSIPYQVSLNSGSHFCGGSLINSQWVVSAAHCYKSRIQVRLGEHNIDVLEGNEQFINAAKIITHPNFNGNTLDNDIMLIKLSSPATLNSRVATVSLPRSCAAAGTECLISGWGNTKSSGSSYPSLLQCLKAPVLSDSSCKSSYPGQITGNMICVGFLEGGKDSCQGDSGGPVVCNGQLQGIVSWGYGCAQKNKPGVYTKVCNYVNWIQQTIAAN
T5 sequence (P43220 24-463): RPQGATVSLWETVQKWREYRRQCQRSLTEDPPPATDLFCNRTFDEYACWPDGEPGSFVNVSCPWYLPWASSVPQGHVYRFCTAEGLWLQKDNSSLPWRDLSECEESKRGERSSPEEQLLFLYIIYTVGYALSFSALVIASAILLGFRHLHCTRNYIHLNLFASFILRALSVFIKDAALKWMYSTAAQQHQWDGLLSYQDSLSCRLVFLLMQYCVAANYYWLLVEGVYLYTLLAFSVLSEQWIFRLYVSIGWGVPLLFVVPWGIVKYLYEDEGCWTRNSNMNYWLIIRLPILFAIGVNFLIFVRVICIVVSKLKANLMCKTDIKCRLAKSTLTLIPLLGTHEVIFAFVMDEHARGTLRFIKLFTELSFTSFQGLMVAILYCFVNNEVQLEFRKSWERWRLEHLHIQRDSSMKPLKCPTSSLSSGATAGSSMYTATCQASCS

CCCCCCCCCCCC(=O)N[C@@H](CCC(=O)NCCOCCOCC(=O)NCCOCCOCC(=O)NCCCC[C@H](NC(=O)[C@H](C)NC(=O)[C@@H](NC(=O)[C@H](Cc1ccccc1)NC(=O)[C@H](CCC(=O)O)NC(=O)[C@](C)(CCCCN)NC(=O)[C@H](C)NC(=O)[C@H](C)NC(=O)[C@H](CCC(=O)O)NC(=O)CNC(=O)[C@H](CCC(=O)O)NC(=O)[C@H](CC(C)C)NC(=O)[C@H](CCCCNC(=O)COCCOCCNC(=O)COCCOCCNC(=O)CC[C@H](NC(=O)CCCCCCCCCCC)C(=O)O)NC(=O)[C@H](CO)NC(=O)[C@](C)(CO)NC(=O)[C@@H](NC(=O)[C@H](CC(=O)O)NC(=O)[C@H](CO)NC(=O)[C@@H](NC(=O)[C@](C)(Cc1ccccc1)NC(=O)[C@H](CO)NC(=O)CNC(=O)[C@H](CCC(=O)O)NC(=O)C(C)(C)NC(=O)[C@@H](N)Cc1c[nH]cn1)[C@@H](C)O)C(C)C)[C@@H](C)CC)C(=O)N[C@H](C(=O)N[C@H](C(=O)N[C@@H](CCC(=O)O)C(=O)NCC(=O)NCC(N)=O)C(C)C)C(C)C)C(=O)O [compound 263] (H-H[Aib]EGS[αMeF]TSDV[αMeS]SK([AEEA-AEEA-γGlu-Lauroyl])LEGEAA[αMeK]EFIAK([AEEA-AEEA-γGlu-Lauroyl])VVEGG-NH2)
Percentage remaining peptide (AUC at specified time-point by RP-HPLC) upon incubation with neprilysin, t = 0 (recombinant Neprilysin): 100%
Percentage remaining intact peptide (AUC by RP-HPLC) upon incubation with pepsin [1]: 100%
Percentage remaining intact peptide (AUC by RP-HPLC) upon incubation with trypsin [2]: 100.0%
remaining at 10 min, […] [3]: 85.6%
remaining at 0.25 h, […] [3]: 76.8%
remaining at 0.5 h, […] [3]: 57.6%
remaining at 2 h, […] [3]: 7.8%
Percentage remaining intact peptide (AUC by RP-HPLC) upon incubation with fasted-state simulated intestinal fluid (FASSIF/P) [4]: 100%
Percentage remaining intact peptide (AUC by RP-HPLC) upon incubation with FASSIF activated with 100 μg/mL enterokinase [5]: 100%
EC50 [6, 11]: ≥ 21.5 nM
EC50 [6, 12]: ≥ 21.5 nM
EC50 [7, 13]: ≥ 21.5 nM
EC50 [7, 14]: ≥ 21.5 nM
remaining at 0.5 h [8]: 88.1%
remaining at 1 h [8]: 93.9%
remaining at 4 h [8]: 93.5%
remaining at 8 h [8]: 95%
remaining at 24 h [8]: 92.3%
Percentage remaining intact peptide (AUC by RP-HPLC) upon incubation with α-chymotrypsin [9]: 100%

CCCCCCCCCCCC(=O)N[C@@H](CCC(=O)NCCOCCOCC(=O)NCCOCCOCC(=O)NCCCC[C@H](NC(=O)[C@H](C)NC(=O)[C@@H](NC(=O)[C@](C)(Cc1ccccc1)NC(=O)[C@H](CCC(=O)O)NC(=O)[C@](C)(CCCCN)NC(=O)[C@H](C)NC(=O)[C@H](C)NC(=O)[C@H](CCC(=O)O)NC(=O)CNC(=O)[C@H](CCC(=O)O)NC(=O)[C@H](CC(C)C)NC(=O)[C@H](CCCCNC(=O)COCCOCCNC(=O)COCCOCCNC(=O)CC[C@H](NC(=O)CCCCCCCCCCC)C(=O)O)NC(=O)[C@H](CO)NC(=O)[C@](C)(CO)NC(=O)[C@@H](NC(=O)[C@H](CC(=O)O)NC(=O)[C@H](CO)NC(=O)[C@@H](NC(=O)[C@](C)(Cc1ccccc1)NC(=O)[C@H](CO)NC(=O)CNC(=O)[C@H](CCC(=O)O)NC(=O)C(C)(C)NC(=O)[C@@H](N)Cc1c[nH]cn1)[C@@H](C)O)C(C)C)[C@@H](C)CC)C(=O)N[C@H](C(=O)N[C@H](C(=O)N[C@@H](CCC(=O)O)C(=O)NCC(=O)NCC(N)=O)C(C)C)C(C)C)C(=O)O [compound 405] (H-H[Aib]EGS[αMeF]TSDV[αMeS]SK([AEEA-AEEA-γGlu-Lauroyl])LEGEAA[αMeK]E[αMeF]IAK([AEEA-AEEA-γGlu-Lauroyl])VVEGG-NH2; N-terminus assumed)
remaining at 5 min, […] ([3]; t = 5 m): 99.5%
remaining at 10 min, […] [3]: 99%
remaining at 0.25 h, […] [3]: 99.4%
remaining at 0.5 h, […] [3]: 95.7%
remaining at 1 h, […] ([3]; t = 1 h): 88.7%
remaining at 2 h, […] [3]: 60.4%
Percentage remaining intact peptide (AUC by RP-HPLC) upon incubation with fasted-state simulated intestinal fluid (FASSIF/P) [4]: 100%
Percentage remaining intact peptide (AUC by RP-HPLC) upon incubation with FASSIF activated with 100 μg/mL enterokinase [5]: 100%
EC50 [10]: 3.9 pM
EC50 [6, 11]: ≥ 21.5 nM
EC50 [6, 12]: ≥ 21.5 nM
EC50 [7, 13]: ≥ 21.5 nM
EC50 [7, 14]: ≥ 21.5 nM
EC50 (GLP-1R (INS1e cells)): 116 pM
